The values below come from patent US20040033263A1, “Reduced formate poly(alkylene oxides) with secondary amines for reducing impurity formation” (priority 2002, published 2004).

For data set [1] the following is noted: cited from earlier work.
Data set [2] is described as follows: Stability of reboxetine methanesulfonate in the presence of traditional poly(alkylene oxide) polymers. It counts as physicochemical. An excerpt: Substantial levels of various impurities are formed, which increase in concentration over time. The predominant impurity that is formed is the n-formyl species of reboxetine methanesulfonate, known as n-formyl reboxetine.
Poly(alkylene oxide) polymer consists of long chains of the polymer. Irradiation and oxidation cause these chains to be cleaved, leaving inorganic and organic formates at the ends of the chains. As more cleaving occurs, there are higher levels of formates present.

As to `C/C(=C/C(=O)O)C(=O)O` [citraconic acid], the Pka in data set [1] is recorded as 2.48.

For the compound `F` [hydrofluoric acid], the Pka in data set [1] was 3.14.

With `CCOc1ccccc1OC(c1ccccc1)C1CNCCO1.CS(=O)(=O)O` (centres unmarked) [reboxetine methanesulfonate], in data set [2], the “stability in the presence of traditional poly(alkylene oxide) polymer subjected to irradiation processes or oxidation” value is recorded as “substantially less stable” and the “stability in the presence of traditional polyethylene oxides” value is recorded as “unstable”.

Take `O=S(O)(O)=S` [thiosurfuric acid]: the Pka in data set [1] was 2.00.
